Experimental data as given in patent publication US5798361A, “5H-thiazolo[3,2-a]pyrimidin-5-one derivatives” (Ferrer Internacional, S.A., priority 1995, dated 1998).

Columns and labels:
D2 receptors = biological target: T1, D2 receptors (Rattus norvegicus, UniProt P61169); assay: Specific binding to D2 receptors ([3H]spiperone, rat striatum membrane); conditions: for IC50: [3H]spiperone 2 nM, rat striatum membrane, 20 min, 35° C., pH 7.4; for D2/5HT2 ratio: ratio of IC50 values, D2 over 5HT2
T1 construct: membrane corresponding to 20 mg of rat striatum; from tissue; host or cells: rat striatum membrane
Protocol: (§1) Specific binding to D2 and 5HT2 receptors was tested as follows:
D2 receptors: A 2-nM solution of radioactive spiperone ([^3 H]spiperone), which acts as a specific ligand, was incubated with the membrane corresponding to 20 mg of rat striatum for 20 min at 35° C. buffered at pH 7.4 with Tris.HCl. The non-specific binding was then determined by addition of a micromolar concentration of unlabelled spiperone. […] After the incubation was completed, the sample was filtered through a glass fiber filter and then washed three times with Tris.HCl buffer. The amount of receptor-bound radioactivity was retained on the membrane and determined by liquid scintillation counting.

5HT2 receptors [1] = biological target: T2, 5HT2 receptors (Rattus norvegicus, UniProt P14842); assay: Specific binding to 5HT2 receptors ([3H]ketanserin, rat cortex membrane); conditions: [3H]ketanserin 0.5 nM, 30 min, 35° C., pH 7.4
T2 construct: membrane corresponding to 1 mg of rat cortex; from tissue; host or cells: rat cortex membrane
Protocol: as §1
5HT2 receptors: A 0.5 nM solution of radioactive ketanserin ([^3 H]ketanserin), which acts as a specific ligand, was incubated with the membrane corresponding to 1 mg of rat cortex for 30 min at 35° C. buffered at pH 7.4 with Tris.HCl. Non-specific binding was then determined by addition of 5 micromolar concentration of unlabelled mianserin. IC50 (inhibitory concentration 50%) was calculated from the inhibition rate of the specific binding obtained by addition of eleven different concentrations of the compounds to be tested. After the incubation was completed, the sample was filtered through a glass fiber filter and then washed three times with Tris.HCl buffer. The amount of receptor-bound radioactivity was retained on the membrane and determined by liquid scintillation counting.

[2] = tested on: apomorphine-induced climbing behaviour; assay: Inhibition of apomorphine-induced climbing behaviour; type: in vivo, Male Swiss mice; conditions: Mus musculus, 1 h; oral, mice, apomorphine 1 mg/kg s.c. at 60 min
Protocol: (§2) The inhibiton test of apomorphine-induced climbing behaviour and the inhibition test of DOI-induced head twitches and scratches are hereinafter described.
Inhibition of aoomorphine-induced climbing behaviour
Male Swiss mice weighing 22-24 g were used. One week prior to experiment, animals were kept in our facilities at a temperature of 20°-22° C. and 12/12 h light-dark cycle, and had free access to food and water. Two hours prior to experiment, the animals were placed in individual cages without access to food.
Animals were administered orally with test drug or 0.25% agar at time 0. After 60 minutes, apomorphine was subcutaneously injected at a dose of 1 mg/kg, and after further 70 minutes the animal's behaviour was assessed. Two additional assessments were performed at 10-min intervals. For assessment, each animal was placed on the bottom of a small upright box (11×7.5×4.5 cm). The walls of the box were made of translucent methacrylate except one of the lateral surfaces (7.5 cm wide) which was a 3-mm wire mesh. The position of the animal was scored for 2 minutes according to the following criteria: 0=four paws on the floor; 1=three paws on the floor; 2=two paws on the floor; 3=one paw on the floor; and 4=four paws holding the wire mesh. If an animal keeps several positions within the 2-min observation, the seconds elapsed in each position will be recorded. Finally, mean scoring was calculated.

5HT2 receptors [3] = biological target: T3, 5HT2 receptors (Mus musculus, UniProt P35363); assay: Inhibition of DOI-induced head twitches and scratches; type: in vivo, Male N.M.R.I. mice; conditions: p.o., mice, DOI 3 mg/kg i.p. at 60 min
T3 construct: Male N.M.R.I. mice weighing 22-26 g were used; from tissue; host or cells: living male N.M.R.I. mice (whole animal, endogenous receptor)
Protocol: as §2
Inhibition of DOI-induced head twitches and scratches
Male N.M.R.I. mice weighing 22-26 g were used. After the animals were weighed, they were individually placed in transparent cages two hours prior to experiment. Test compound was given p.o. at time 0. The administration interval time between mice was 5 min. At time 60 min DOI at the dose of 3 mg/kg i.p. dissolved in saline was administered. The number of head twitches and scratches were assessed as well as the presence or absence of escape attempts.

[4] = Catalepsy by oral route in Sprague-Dawley rats; type: in vivo; conditions: for ED50: rat, in vivo, oral, Sprague-Dawley rats, 50% of treated animals showed catalepsy; for R (Catalepsy/Climbing): ratio of ED50 values

T2 sequence (P14842 whole entry): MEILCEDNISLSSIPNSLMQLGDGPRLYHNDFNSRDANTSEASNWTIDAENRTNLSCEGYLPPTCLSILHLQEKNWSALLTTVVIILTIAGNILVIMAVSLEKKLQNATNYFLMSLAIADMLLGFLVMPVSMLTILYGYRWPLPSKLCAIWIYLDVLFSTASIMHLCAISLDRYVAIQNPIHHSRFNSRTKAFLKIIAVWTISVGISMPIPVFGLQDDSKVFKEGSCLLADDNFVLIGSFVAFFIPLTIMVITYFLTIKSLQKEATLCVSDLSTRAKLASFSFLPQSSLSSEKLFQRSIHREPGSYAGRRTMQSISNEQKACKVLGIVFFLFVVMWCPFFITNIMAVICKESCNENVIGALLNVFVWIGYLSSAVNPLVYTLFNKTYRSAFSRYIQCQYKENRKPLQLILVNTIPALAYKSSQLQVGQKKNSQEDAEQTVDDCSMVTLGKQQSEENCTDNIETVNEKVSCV
T1 sequence (P61169 whole entry): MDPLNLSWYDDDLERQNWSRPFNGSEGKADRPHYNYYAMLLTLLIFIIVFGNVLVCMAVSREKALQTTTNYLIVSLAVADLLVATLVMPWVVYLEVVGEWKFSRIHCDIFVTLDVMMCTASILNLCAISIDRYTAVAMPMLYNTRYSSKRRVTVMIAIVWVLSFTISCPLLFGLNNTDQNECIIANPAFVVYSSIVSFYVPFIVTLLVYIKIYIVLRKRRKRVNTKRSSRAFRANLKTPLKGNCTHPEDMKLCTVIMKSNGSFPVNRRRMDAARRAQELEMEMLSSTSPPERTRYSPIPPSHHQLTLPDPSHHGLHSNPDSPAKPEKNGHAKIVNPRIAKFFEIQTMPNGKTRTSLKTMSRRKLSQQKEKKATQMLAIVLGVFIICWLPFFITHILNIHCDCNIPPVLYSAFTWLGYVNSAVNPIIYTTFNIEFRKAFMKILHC
T3 sequence (P35363 whole entry): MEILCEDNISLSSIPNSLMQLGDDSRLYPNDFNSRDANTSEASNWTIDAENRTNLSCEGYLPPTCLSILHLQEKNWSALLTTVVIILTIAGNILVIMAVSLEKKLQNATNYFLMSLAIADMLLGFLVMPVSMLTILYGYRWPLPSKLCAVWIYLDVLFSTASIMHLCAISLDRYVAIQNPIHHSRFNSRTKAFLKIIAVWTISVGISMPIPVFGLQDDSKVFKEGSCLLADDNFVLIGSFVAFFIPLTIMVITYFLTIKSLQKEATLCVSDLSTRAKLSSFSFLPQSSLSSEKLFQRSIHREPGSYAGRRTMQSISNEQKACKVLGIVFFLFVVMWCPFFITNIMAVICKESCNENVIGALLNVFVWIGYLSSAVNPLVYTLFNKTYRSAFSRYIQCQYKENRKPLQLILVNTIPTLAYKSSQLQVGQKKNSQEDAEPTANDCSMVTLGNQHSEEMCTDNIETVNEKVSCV

| SMILES | IC50 (D2 receptors) | D2/5HT2 ratio (D2 receptors) | IC50 (5HT2 receptors [1]) | ED50 [2] | ED50 DOI (5HT2 receptors [3]) | ED50 [4] | R (Catalepsy/Climbing) [4] |
| --- | --- | --- | --- | --- | --- | --- | --- |
| Cc1nc2scc(-c3ccc(F)cc3)n2c(=O)c1CCN1CCC(c2noc3cc(F)ccc23)CC1 [Example 14, 6-[2-[4-(6-fluoro-1,2-benzisoxazol-3-yl)-1-piperidinyl]ethyl]-3-(4-fluorophenyl)-7-methyl-5H-thiazolo[3,2-a]pyrimidin-5-one] | 0.0197 µM | 6.2 | 0.00318 µM | 2.9 mg/kg | 0.28 mg/kg | 9.3 mg/kg | 3.2 |
| Cc1nc2scc(-c3ccccc3)n2c(=O)c1CCN1CCC(c2noc3cc(F)ccc23)CC1 [Example 15, 6-[2-[4-(6-fluoro-1,2-benzisoxazol-3-yl)-1-piperidinyl]ethyl]-3-phenyl-7-methyl-5H-thiazolo[3,2-a]pyrimidin-5-one] | 0.0441 µM | 11.2 | 0.00394 µM | 14.7 mg/kg | 0.58 mg/kg | 16 mg/kg | 1.1 |
| COc1ccc(-c2csc3nc(C)c(CCN4CCC(c5noc6cc(F)ccc56)CC4)c(=O)n23)cc1 [Example 16, 6-[2-[4-(6-fluoro-1,2-benzisoxazol-3-yl)-1-piperidinyl]ethyl]-3-(4-methoxyphenyl)-7-methyl-5H-thiazolo[3,2-a]pyrimidin-5-one] | 0.0421 µM | 5.1 | 0.00832 µM | 7.4 mg/kg | 0.84 mg/kg | 30 mg/kg | 4.1 |
| Cc1ccc(-c2csc3nc(C)c(CCN4CCC(c5noc6cc(F)ccc56)CC4)c(=O)n23)cc1 [Example 17, 6-[2-[4-(6-fluoro-1,2-benzisoxazol-3-yl)-1-piperidinyl]ethyl]-3-(4-methylphenyl)-7-methyl-5H-thiazolo[3,2-a]pyrimidin-5-one] | 0.0364 µM | 2.4 | 0.0149 µM | 3.9 mg/kg | 0.57 mg/kg | 22.5 mg/kg | 5.8 |
| Cc1nc2scc(-c3ccc4c(c3)OCO4)n2c(=O)c1CCN1CCC(c2noc3cc(F)ccc23)CC1 [Example 18] | 0.0173 µM | 2.3 | 0.00763 µM | 7.7 mg/kg | 0.80 mg/kg | 20 mg/kg | 2.6 |
| Cc1nc2scc(-c3ccc(Cl)cc3)n2c(=O)c1CCN1CCC(c2noc3cc(F)ccc23)CC1 [Example 19] | 0.0436 µM | 3.9 | 0.0111 µM | 3.5 mg/kg | 0.82 mg/kg | 9.5 mg/kg | 2.7 |
| Cc1nc2scc(-c3ccc(Cl)c(Cl)c3)n2c(=O)c1CCN1CCC(c2noc3cc(F)ccc23)CC1 [Example 20] | 0.0194 µM | 0.6 | 0.0352 µM | – | – | – | – |
| Cc1nc2scc(-c3cccc(Cl)c3)n2c(=O)c1CCN1CCC(c2noc3cc(F)ccc23)CC1 [Example 21] | 0.0166 µM | 0.7 | 0.0245 µM | – | – | – | – |
| COc1cccc(-c2csc3nc(C)c(CCN4CCC(c5noc6cc(F)ccc56)CC4)c(=O)n23)c1 [Example 22] | 0.028 µM | 3.8 | 0.00746 µM | 19 mg/kg | 1.10 mg/kg | 40 mg/kg | 2.1 |
| Cc1cccc(-c2csc3nc(C)c(CCN4CCC(c5noc6cc(F)ccc56)CC4)c(=O)n23)c1 [Example 23] | 0.0223 µM | 0.7 | 0.0321 µM | – | – | – | – |
| Cc1nc2scc(-c3ccccc3Cl)n2c(=O)c1CCN1CCC(c2noc3cc(F)ccc23)CC1 [Example 24] | 0.0292 µM | 1.0 | 0.0295 µM | > 50 mg/kg | 1.50 mg/kg | > 50 mg/kg | – |
| Cc1nc2scc(-c3cccc(C(F)(F)F)c3)n2c(=O)c1CCN1CCC(c2noc3cc(F)ccc23)CC1 [Example 25] | 0.0209 µM | 0.3 | 0.0833 µM | – | – | – | – |
| Cc1nc2scc(-c3ccccc3F)n2c(=O)c1CCN1CCC(c2noc3cc(F)ccc23)CC1 [Example 26] | 0.082 µM | 23.4 | 0.00351 µM | > 50 mg/kg | 0.42 mg/kg | > 50 mg/kg | – |
| Cc1nc2scc(-c3ccccc3)n2c(=O)c1CCN1CCC(C(=O)c2ccc(F)cc2)CC1 [Example 27] | 0.174 µM | 13.9 | 0.0125 µM | > 50 mg/kg | 1.20 mg/kg | > 50 mg/kg | – |
| COc1ccc(-c2csc3nc(C)c(CCN4CCC(C(=O)c5ccc(F)cc5)CC4)c(=O)n23)cc1 [Example 28] | 0.0799 µM | 9.7 | 0.00826 µM | 24.6 mg/kg | 0.60 mg/kg | > 50 mg/kg | > 2.0 |
| O=C(CCCN1CCC(O)(c2ccc(Cl)cc2)CC1)c1ccc(F)cc1 [Haloperidol, reference compound] | – | – | – | 1.2 mg/kg | – | 1.95 mg/kg | – |
